# Test results as given in publication PMC7504466, “In-Vitro and In-Silico Evaluations of Heterocyclic-Containing Diarylpentanoids as Bcl-2 Inhibitors Against LoVo Colorectal Cancer Cells” (Molecules, 2020).
# pIC50: −log10 of the molar value.
# Columns and labels:
# [1] = system: Bcl-2; experiment: Western blot, Bcl-2; type: cell-based, human; settings: 5 µM, LoVo cells, as early as 24 h post-treatment
# Method: (§1) Lovo cells (1.5 × 10^4 cells/cm^2) were seeded in a T75 flask and incubated at 37 °C and 5% CO2 atmosphere overnight. The seeded cells were then treated with selected compounds at 5 µM of 2e for 24 h, 48 h, and 72 h. After treatment, the cells were harvested and lysed with phenylmethanesulfonyl fluoride (PMSF)-containing cell lysis buffer. The lysates were then centrifuged at 13,300× g for 15 min and the supernatant was collected. Protein concentrations of all samples were determined using a BCA assay kit (Thermo Scientific Inc., Waltham, MA, USA). Equal amounts of protein were electrophoresed in 12% and 20% SDS-polyacrylamide gel (SDS-PAGE), and electro-transferred onto a 0.22-μm polyvinyldene difluoride membrane. Each membrane was blocked with 5% (w/v) skim milk at room temperature for 1 h followed by overnight incubation with specific primary antibodies (1:1000) at 4 °C. Subsequently, the respective membrane was washed thrice with TBST (0.05% (v/v) of tween-20) followed by 1 h incubation with secondary antibody (1:10,000). Upon completion, the membrane was washed thrice with 1X Tris-Buffered Saline, 0.1% Tween® 20 Detergent (TBST) and the immune reactive bands were developed using SuperSignal West Dura Extended Duration Substrate (Thermo Scientific Inc., Waltham, MA, USA). […]
# [2] = system: LoVo cells; experiment: Cell cycle analysis (flow cytometry, propidium iodide); type: cell-based, human; settings: 2.5 and 5 µM, 24 h
# Method: LoVo cells (1 × 10^5 cells/well) were seeded into a 6-well plate and incubated at 37 °C and 5% CO2 atmosphere overnight. The seeded cells were then treated with different concentrations of tested compounds for 24 h. Upon completion, cells were trypsinized and washed with PBS followed by fixation with 70% ethanol overnight at 4 °C. Then, the fixed cells were centrifuged at 160× g for 5 min and the resultant cell pellet was washed twice with PBS. Subsequently, 20 μL of DNAse-free RNAse A solution (1 mg/mL) was added to the cell-containing PBS and further incubated for 15 min. Upon completion, 10 μL of propidium iodide staining buffer (10 mg/mL) was added and the resulting mixture was further incubated for 20 min at 4 °C in the dark. Lastly, samples were analyzed with a flow-cytometer (ACEA Biosciences, Inc., San Diego, CA, USA) at the PE channel. The values presented are the means ± SD of three independent experiments.
# [3] = system: caspase-9; experiment: Western blot, cleaved caspase-9; type: cell-based, human; settings: 5 µM, LoVo cells
# Method: as §1
# [4] = system: LoVo cells; experiment: Measurement of intracellular ROS levels (DCFH-DA, flow cytometry); type: cell-based, human; settings: 5 µM
# Method: LoVo cells (1 × 10^5 cells/well) were seeded into a 6-well plate and incubated at 37 °C and 5% CO2 atmosphere overnight. After incubation, the seeded cells were treated with 1 mL of 10 µM DCFDA in culturing media for 1 h. Upon completion, the cells were washed twice with PBS followed by treatments with 5 µM of selected compounds for 24, 48 and 72 h. Then, the treated cells were harvested, washed and re-suspended in PBS followed by flow-cytometric analysis at the FITC channel.
# [5] = system: normal human dermal fibroblasts (NHDF); experiment: MTT cytotoxicity assay, normal human dermal fibroblasts; type: cell-based; settings: 72 h post-treatment
# Method: (§2) The in-vitro cytotoxic activity of the synthesized compounds on seven human CRC cell lines including KRAS (T84, SW620, LoVo) and BRAF (HT29, NCI-H508, RKO and LS411N) mutated cells were determined by MTT assay as previously described. The IC50 values obtained are summarized in Table 2 in which 5-FU and normal human dermal fibroblasts (NHDF) were used as controls. Meanwhile, a heatmap (Figure 3) was also generated using GraphPad Prism v7.0 (GraphPad Software, La Jolla, CA, USA) to visualize the cytotoxic trends of synthesized compounds graphically.
# (§3) A panel of KRAS (T84, SW620 and LoVo) and BRAF (HT29, NCI-H508, RKO and LS411N) mutated human CRC cell lines were grown in Dulbecco’s modified Eagle’s medium (DMEM) containing 10% fetal bovine serum (FBS) and 1% penicillin/streptomycin at 37 °C under 5% CO2 while NHDF cells were cultured in DMEM with 5% FBS under the same condition. The culture medium was replenished every two days until the cells reached 80–90% confluency for further usage. All cell lines (T84, ATCC®CCL-248™; SW620, ATCC®CCL-227™; LoVo, ATCC®CCL-229™; HT-29, ATCC®HTB-38; NCI-H508, ATCC®CCL-253™; RKO, ATCC®CRL-2577; LS411N, ATCC®CRL-2159; NHDF, ATCC® PCS-201-010™) were purchased from American Type culture Collections (ATCC, Manassas, VA, USA).
# (§4) LoVo cells (1.5–5 × 10^3 cells/well) were seeded into a 96 well plate and incubated at 37 °C and 5% CO2 atmosphere for 24 h. On the following day, the cell media were replaced with 100 µL of test compounds at various concentration. The final concentration of DMSO in the well is 0.1%. After 72 h of incubation, culture medium was removed and 100 µL of MTT (thiazoyl blue tertrazolium bromide) solution (0.5 mg/mL in culture media) was added. The resultant plates were then further incubated at 37 °C for 4 h. Upon completion, the MTT solution was removed and the formazan salts formed were dissolved in 100 µL of DMSO. The absorbance was recorded with a microplate reader at 570 nm. The IC50 values of tested compounds were calculated from three independent experiments.
# [6] = system: LS411N cells; experiment: MTT cytotoxicity assay, LS411N cells; type: cell-based; settings: Homo sapiens, LS-411N, 72 h post-treatment, read-out: IC50 (µM) BRAF LS411N
# Method: as §2, §3, §4
# [7] = system: caspase-8; experiment: Western blot, caspase-8; type: cell-based, human; settings: 5 µM, LoVo cells
# Method: as §1
# [8] = system: LoVo cells; experiment: Morphological inspection; type: cell-based, human; settings: 0.625-5 µM, 24 h post-treatment
# Method: LoVo cells (5 × 10^4 cells/well) were seeded into a 12 well plate and incubated at 37 °C and 5% CO2 atmosphere for 24 h. Next, the culture media were replaced with 1 mL of test compounds at various concentration and further incubated for 24 h. The final concentration of DMSO in the well is 0.1%. The morphological changes of compound-treated cells were photographed using a fluorescent microscope.
compound,measurement,setting,value
"O=C1C(=Cc2ccccc2Br)CSCC1=Cc1ccccc1Br [Compound 2e, 3,5-Bis(2-bromobenzylidene)tetrahydro-4H-thiopyran-4-one]",Bcl-2 expression,[1],significantly inhibited
same,cell cycle effect,[2],induce G2/M-phase cell arrest
same,caspase-9 cleavage,[3],activate the cleavage of caspase-9
same,cellular ROS level,[4]; 24 h,rapid increment in cellular ROS level
same,cellular ROS level,[4]; 48 h and 72 h,secondary increment of cellular ROS
same,pIC50,[5],5.15
same,IC50,[6],1.3 µM
same,caspase-8 cleavage,[7],unaffected
same,morphology of treated LoVo cells,[8],shrink from an epithelial-like shape to a round shape
